Laboratory results from patent publication US20230257367A1, “NOVEL THYROID HORMONE BETA RECEPTOR AGONIST” (Chengdu Kanghong Pharmaceutical Co., Ltd., priority 2020, published 2023).

How the values were obtained:
[1] = preclinical toxicological studies; cited from earlier work
[2] = reported clinical data (VK2809 phase I; Eprotirome phase III); cited from earlier work
TRβ-LBD/RXRα = molecular target: T1, TRβ-LBD/RXRα (Homo sapiens, UniProt P10828); test: In vitro binding experiment (TR-FRET SRC2-2 co-activator peptide recruitment), TRβ; format: biochemical; settings: 4 h incubation at room temperature
T1 construct: TRβ-LBD (Invitrogen, PV4764) with a GST tag were used; purchased Invitrogen (TRβ-LBD); Pharmaron (RXRα) PV4764
T1 sequence (P19793 whole entry partner, other chains not shown, the tested form may be a part): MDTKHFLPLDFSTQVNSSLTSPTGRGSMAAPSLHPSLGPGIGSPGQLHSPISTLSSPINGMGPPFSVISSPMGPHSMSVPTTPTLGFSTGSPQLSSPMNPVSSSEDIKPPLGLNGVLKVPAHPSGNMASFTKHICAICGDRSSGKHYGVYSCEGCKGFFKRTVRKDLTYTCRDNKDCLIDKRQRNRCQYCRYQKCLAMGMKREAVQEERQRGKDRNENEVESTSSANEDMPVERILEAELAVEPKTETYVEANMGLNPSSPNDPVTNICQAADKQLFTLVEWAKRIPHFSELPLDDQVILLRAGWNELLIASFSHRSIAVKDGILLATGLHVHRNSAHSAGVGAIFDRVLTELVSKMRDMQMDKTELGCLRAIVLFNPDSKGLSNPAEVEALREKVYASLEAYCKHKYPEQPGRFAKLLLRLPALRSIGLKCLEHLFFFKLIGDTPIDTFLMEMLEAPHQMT

TRβ = molecular target: T2, TRβ (Homo sapiens, UniProt P10828); test: In vitro TRβ cell transfection experiment (GAL4 luciferase reporter, HEK293T); format: cell-based
T2 construct: host or cells: HEK293T
T2 sequence (P10828 217-461 limits assumed): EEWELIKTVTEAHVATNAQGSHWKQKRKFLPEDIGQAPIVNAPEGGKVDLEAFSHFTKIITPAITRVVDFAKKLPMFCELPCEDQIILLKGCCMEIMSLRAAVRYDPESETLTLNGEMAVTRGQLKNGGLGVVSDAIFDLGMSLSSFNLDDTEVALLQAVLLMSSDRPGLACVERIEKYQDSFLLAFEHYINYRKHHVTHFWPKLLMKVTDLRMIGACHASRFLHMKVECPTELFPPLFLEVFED
T2 sequence (P19793 227-458 partner limits assumed): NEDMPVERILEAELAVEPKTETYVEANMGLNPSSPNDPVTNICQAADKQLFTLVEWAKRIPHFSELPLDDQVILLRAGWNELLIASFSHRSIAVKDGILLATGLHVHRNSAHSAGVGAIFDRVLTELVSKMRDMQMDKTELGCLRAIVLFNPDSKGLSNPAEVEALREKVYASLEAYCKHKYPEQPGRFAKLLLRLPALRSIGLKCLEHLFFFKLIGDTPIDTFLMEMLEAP

primary hepatocyte = test: Hepatotoxicity detection in vitro (CellTiter-Glo); format: cell-based, human; settings: primary hepatocytes; for IC50: Homo sapiens, Hepatocyte, cell viability after 48 hours; for Cell activity at the highest concentration (%): 48 hours, highest working solution concentration 600 μM
Method: Information of Primary Hepatocyte
Step 1: a test substance was prepared into a 200 mM DMSO stock solution, and then subjected to 3-times gradient continuous dilution by 7 concentrations, then 1.5 μL of each of the solutions of the 8 concentrations was added into 498.5 μL of incubation culture medium (with a composition referring to Table 5, directly mixed evenly) to prepare a working solution, and the incubation culture medium was preheated at 37° C. before preparation. DMSO was used as a solvent control. DMSO contents in the working solution and the solvent control were both 0.3 vol %. Concentrations of compounds were as follows:
Step 2: Plate Inoculation and Cell Culture
Second Step: Plate Inoculation and Culture of Cells
1) A tube of hepatocytes of the donor used in the experiment preserved at ultra-low temperature was taken, and the hepatocytes were ensured to be still frozen at low temperature before resuscitation. The hepatocytes were quickly placed in a water bath at 37° C. and gently shaken until all ice crystals were dispersed, and were transferred to a biosafety cabinet after spraying 70 vol % ethanol.
2) Contents of hepatocyte tubules were poured into a 50 mL centrifuge tube containing 50 mL of resuscitation culture medium (with a composition referring to Table 3, directly mixed evenly), and centrifuged at 80 g for 8 minutes. After centrifugation, the resuscitation culture medium was sucked out and an inoculation culture medium was added (with a composition referring to Table 4, directly mixed evenly). The cells were counted by AO/PI staining to obtain a cell suspension with a cell density of 0.2×10^6 cells per milliliter.
3) The cell suspension above was inoculated into a 96-well plate coated with collagen I, with 100 μL per well. The culture plate was placed in a 5% CO2 incubator with 95% relative humidity to culture for 4 hours to 6 hours.
4) After incubation for 4 hours to 6 hours, the state of the cells was observed under microscope. The culture plate was shaken gently, the inoculation culture medium was sucked out, and 100 μL of incubation culture medium was added into each well (with a composition referring to Table 5). A toxicity test could be carried out after culturing in the incubator for 18 hours to 20 hours.
5) Before administration, the morphology of the cells was observed under microscope. The culture medium in the culture plate was sucked out, and 100 μL of solvent control (DMSO), or test substance working solution was added into each well. Three parallel samples were tested under each condition.
6) The newly prepared working solution or solvent control was used for solution exchange every 24 hours after dosing.
After the working solution acted for 48 hours, the morphology of the cells was observed under microscope for later use.
Step 3: Cytotoxicity Detection
1) A CellTiter-Glo (Promega, article number G9243) reagent stored at −20° C. was melted in a water bath at 37° C.
2) After the cell culture plate obtained above was incubated for 48 hours, 50 μL of CellTiter-Glo solution was directly added into each experimental well.
3) The cell culture plate was vortexed at 400 rpm for 10 minutes, and incubated at room temperature to stabilize a luminescence signal.
After 10 minutes 100 μL of reaction solution was sucked from each well and transferred to a new white nontransparent-bottom flat plate (Corning 96-well plate Cat No. 3917). The
chemiluminescence value of each well was read by a microplate reader (a luminescence value of the white nontransparent-bottom flat plate was recorded as “a luminescence valueblank”; and a luminescence value of the solvent control was recorded as “a luminescence valuesolvent”).
Cell viability(%)=[(luminescence valueto-be-tested compound−luminescence valueblank)/(luminescence valuesolvent−luminescence valueblank)]×100% […]

TRα-LBD/RXRα = molecular target: T3, TRα-LBD/RXRα (Homo sapiens, UniProt P10827); test: In vitro binding experiment (TR-FRET SRC2-2 co-activator peptide recruitment), TRα; format: biochemical; settings: 4 h incubation at room temperature
T3 construct: TRα-LBD (Invitrogen, PV4762), or TRβ-LBD (Invitrogen, PV4764) with a GST tag were used; purchased Invitrogen (TRα-LBD); Pharmaron (RXRα) PV4762
T3 sequence (P19793 whole entry partner, other chains not shown, the tested form may be a part): as the sequence (P19793 whole entry partner, other chains not shown, the tested form may be a part) above

TRα = molecular target: T4, TRα (Homo sapiens, UniProt P10827); test: In vitro TRα cell transfection experiment (GAL4 luciferase reporter, HEK293T); format: cell-based
T4 construct: host or cells: HEK293T
T4 sequence (P10827 1-410 isoform P10827-2): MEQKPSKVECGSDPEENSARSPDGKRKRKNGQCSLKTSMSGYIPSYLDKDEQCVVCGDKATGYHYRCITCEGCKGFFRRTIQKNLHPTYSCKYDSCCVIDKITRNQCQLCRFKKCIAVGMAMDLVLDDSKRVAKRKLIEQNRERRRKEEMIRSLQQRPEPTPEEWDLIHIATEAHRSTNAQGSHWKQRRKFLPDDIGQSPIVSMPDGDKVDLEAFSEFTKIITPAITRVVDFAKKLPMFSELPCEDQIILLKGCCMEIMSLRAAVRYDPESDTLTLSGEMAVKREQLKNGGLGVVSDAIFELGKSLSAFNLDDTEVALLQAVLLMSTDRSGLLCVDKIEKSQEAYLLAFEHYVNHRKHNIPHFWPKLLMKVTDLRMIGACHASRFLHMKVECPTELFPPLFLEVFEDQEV
T4 sequence (P19793 227-458 partner limits assumed): T2 sequence (P19793 227-458 partner limits assumed)

Row | SMILES | cartilage damage [1] | liver enzyme [2] | EC50 (TRβ-LBD/RXRα) [µM] | EC50 (TRβ) [µM] | IC50 (primary hepatocyte) [nM] | Cell activity at the highest concentration (%) (primary hepatocyte) | EC50 (TRα-LBD/RXRα) [µM] | EC50 (TRα) [µM]
1 | Cc1cc(OCP2(=O)OCC[C@@H](c3cccc(Cl)c3)O2)cc(C)c1Cc1ccc(O)c(C(C)C)c1 (stereo partly shown) [VK2809] | cartilage damage was found | Liver enzyme increase | – | – | – | – | – | –
2 | CC(C)c1cc(Oc2c(Br)cc(NC(=O)CC(=O)O)cc2Br)ccc1O [Eprotirome] | cartilage injury was also found | increase in liver enzyme | – | – | – | – | – | –
3 | CC(C)c1nc(Oc2c(Cl)cc(-n3nc(C#N)c(=O)[nH]c3=O)cc2Cl)ncc1O [KH03] | – | – | 0.031 | 0.089 | 264000 | 0.0421 | 0.144 | 0.826
4 | O=c1cnn(-c2cc(Cl)c(Oc3ncc(O)c(Cc4ccccc4)n3)c(Cl)c2)c(=O)[nH]1 [KH10] | – | – | 0.054 | 0.032 | 160000 | 0.0142 | 1.47 | 0.269
